The source of these data is article PMC9861830, “Hydroxylated Coumarin-Based Thiosemicarbazones as Dual Antityrosinase and Antioxidant Agents” (International Journal of Molecular Sciences, 2023).

Data set [1] in a line: Potentiometric and spectrophotometric titrations (protonation constants, speciation). The data set is classed as physicochemical. The following applies: for Logβ / pK: 25 °C, NaCl 0.1 M; for species present at pH of the enzymatic inhibitory studies: pH 6.8. On the procedure: Potentiometric titrations were performed in a thermostated vessel at 25 °C in 0.1 M ionic strength (NaCl) using a Mettler-Toledo Seven Compact pH/Ion-meter and equipped with a Mettler-Toledo InLab Micro Pro combined glass electrode with an integrated temperature probe. The glass electrode was calibrated daily and checked using the GLEE software package. UV–visible (UV–Vis) measurements were carried out with an Agilent Cary 60 spectrophotometer using a 0.1 cm quartz cuvette. Protonation constants of the studied molecules were determined via spectrophotometric and potentiometric titrations. Solutions of ligands were prepared daily by dissolving a suitable amount of the compound in DMSO (concentration ≈ 12 mM) prior to the required dilution in 0.1 M NaCl (final DMSO content 1% V/V, concentration ≈ 1.2∙10^−4 M). Four HCl equivalents for T1, five for T2–4, and six for T5–6 were added before titrating with an NaOH standard solution. Potentiometric and spectrophotometric data were simultaneously analysed using the Hyperquad 2006 software package. Speciation diagrams were obtained using Hyss 2009 program with the spectrophotometric data. The number of linearly independent absorbing species was found by applying the eigenvalue analysis to the absorbance data matrix.

Data set [2] in a line: ABTS radical scavenging assay. The conditions noted are these: absorbance at 734 nm after 1 min; mean ± SEM, three experiments. On the procedure:
(§1) Radical scavenging activities were measured with DPPH and ABTS radical scavenging assays. […] In brief, for the DPPH antioxidant assay procedure, each test compound was dissolved in DMSO at 1.0 mM concentration and then diluted with absolute ethanol in the 500–2.0 µM concentration range. A solution of the DPPH radical (0.1 mM, absolute ethanol) was freshly prepared, stored in the dark, and used within a few hours. Each test solution (1500 µL) was vigorously mixed to an equal volume of DPPH inside a cuvette, and the molecular absorbance at 517 nm was recorded for 30 min. Each test was evaluated in three independent experiments. Ascorbic acid was used as the reference compound. For the ABTS method, based on the capacity of an antioxidant to scavenge the free ABTS^+ generated in the aqueous phase by reacting with a strong oxidizing, the free radical ABTS was produced by reacting 7 mM ABTS with 2.45 mM potassium persulfate in aqueous solution and kept in darkness at room temperature for 24 h before use. Samples of each compound (10 µL) were added to 990 µL of ABTS, and the reduction of the blue-green radical ABTS by hydrogen-donating antioxidants was evaluated by measuring the absorbance at 734 nm after 1 min incubation. The 6-hydroxy-2,5,7,8-tetramethylchromane-2-carboxylic acid (Trolox) was used as the antioxidant standard.

Data set [3] has as its target mushroom tyrosinase. The data set is described as follows: Tyrosinase inhibition assay (L-DOPA, dopachrome at 492 nm; Lineweaver–Burk plots). The conditions noted are these: for IC50: L-DOPA 0.5 mM, pH 6.8, 37 °C, mean ± SD, three experiments; for Ki: secondary plot of slope, read-out: Ki (inhibitor binding with free enzyme); for inhibition mode: Lineweaver–Burk plots, L-DOPA. It is filed as biochemical. On the procedure:
The inhibition of mushroom tyrosinase was evaluated as previously described with slight modifications. A mixture containing 50 mM phosphoric acid buffer solution (pH 6.8), a solution of mushroom tyrosinase (72 U/mL final concentration; Sigma Chemical Co., Milan, Italy), and DMSO with or without the sample were incubated at 37 °C for 10 min. Then, L-DOPA solution (0.5 mM final) was added, and the reaction was monitored following the molecular absorbance at 492 nm that resulted from the formation of the dopachrome product. Measurements were performed using a FLUOstar OPTIMA (BMG Labtech, Offenburg, Germany). […] The inhibition mode was analysed using the Lineweaver–Burk plots.

Data set [4] in a line: DPPH radical scavenging assay. The conditions noted are these: for EC50: ethanol, absorbance at 517 nm, 30 min, mean ± SEM, three experiments. On the procedure: The antioxidant activity of T1 and its hydroxylated derivatives T2–6 was evaluated via DPPH assay, which is based on the ability of the stable DPP· radical species to be converted in its diamagnetic form (DPPH) by accepting an H· from the tested compound. […] From the evaluation of the relative decrease in absorbance at different concentrations of each tested compound, the antioxidant activities were evaluated by reporting their EC50 values, as shown in Table 1.
as §1

For data set [5], the system named is B16F10 cells. The data set is described as follows: Cell viability assay (MTT). It is filed as cell-based, Murine. The conditions noted are these: 48 h. As for the experimental part:
(§2) The cellular cytotoxicity of compound T6 was investigated using a 3-(4,5-dimethylthiazol-2-yl)-2,5-diphenil-tetrazolium bromide (MTT) assay. Murine melanoma B16F10 cells were seeded in 96-well plates at a density of 5 × 10^3 cells/well and cultured in Dulbecco’s Modified Eagle Medium (DMEM) with 10% fetal bovine serum at 37 °C in a humidified atmosphere with 5% CO2. The B16F10 cell line was exposed for 48 h to compound T6 at concentrations ranging from 4 to 100 μM. After incubation, culture supernatants were removed and exchanged with a medium containing 0.5 mg/mL MTT. Then, after 3 h of incubation at 37 °C, the cells were lysed with 100 μL of DMSO. The absorbance was determined at 560 nm using a microplate reader (Multiskan FC-Thermo Scientific Inc. Waltham, MA, USA).

Data set [6] in a line: Cell viability assay (MTT). The data set is classed as cell-based, Murine. The following applies: mouse, B16F10 melanoma cells, 100 μM, percentage of control. On the procedure: as §2
Setting [7] is: L + H^+ ⇌ HL (first protonation).

Each structure is given as a SMILES string.

For `C/C(=N\NC(N)=S)c1cc2cc(O)ccc2oc1=O` [T2, (1E)-2-(1-(6-hydroxy-2-oxo-2H-chromen-3-yl)ethylidene)hydrazine-1-carbothioamide], the melting point was 222 to 224 °C (dec.). The Logβ in data set [1] (L + 2H^+ ⇌ H2L) is given as 17.24 (6). Also, the Logβ in data set [1] (L + 3H^+ ⇌ H3L) is listed as 22.4 (1). Besides, in data set [1] (L + 4H^+ ⇌ H4L), the Logβ is 26.7 (1). In data set [1] (setting [7]), the Logβ is listed as 10.20 (8) and the pK is on record as 10.2. In data set [1] (step to H3L), this compound showed a pK of 5.4. The compound also had a pK in data set [1] (step to H4L) of 4.3. In data set [2], this compound displayed a concentration for a half-maximal effect (EC50) of 25.7 ± 0.4 µM. Besides, the 50% inhibitory concentration (IC50) in data set [3] worked out at 14 ± 7 µM. This compound yielded a concentration for a half-maximal effect (EC50) in data set [4] greater than 250 µM.

With `O=C1O[C@H]([C@@H](O)CO)C(O)=C1O` [Ascorbic Acid, Ascorbic acid, reference compound], a half-maximal effect in data set [4] (EC50) was put at 18.6 ± 0.6 µM.

As to `C/C(=N\NC(N)=S)c1cc2ccc(O)c(O)c2oc1=O` [T6, (1E)-2-(1-(7,8-dihydroxy-2-oxo-2H-chromen-3-yl)ethylidene)hydrazine-1-carbothioamide], the melting point was 228 to 230 °C (dec.). Also, in data set [5] (4 μM), the “cytotoxic effect (in words)” value was “no cytotoxic effect”. Besides, in data set [5] (4–100 μM), the “cytotoxicity (in words)” value was “not cytotoxic”. This compound yielded a viability at 48 h, 100 µM in data set [6] greater than 90%. Besides, in data set [1] (L + 2H^+ ⇌ H2L), the Logβ is listed as 19.3 (1). In addition, in data set [1] (L + 3H^+ ⇌ H3L), the Logβ is 25.1 (1). For the same compound, the Logβ in data set [1] (L + 4H^+ ⇌ H4L) is given as 29.5 (1). Further, in data set [1] (setting [7]), the Logβ is given as 10.5 (2) and the pK was found to be 10.5. The compound further gave a pK in data set [1] (step to H2L) of 8.8. The pK in data set [1] (step to H3L) was determined as 5.8. The compound further showed a pK in data set [1] (step to H4L) of 4.4. Besides, in data set [1], the “species present at pH of the enzymatic inhibitory studies” value was “monoanionic form, H2L^-”. This compound also displayed an EC50 in data set [2] of 8.8 ± 0.4 µM. Besides, in data set [3], the midpoint of inhibition, the IC50, lay at 4.1 ± 0.7 µM and the inhibition mode entry is “mixed-type inhibitor”. In addition, in data set [3] (L-DOPA substrate, secondary plot of 1/Vmax), the “Kis (inhibitor binding with enzyme–substrate complex)” value is 10.65 µM. The Ki in data set [3] (L-DOPA substrate) is 5.88 µM. Besides, the response in data set [4] was half-maximal at 17.9 ± 0.4 µM (EC50).

As for `C/C(=N\NC(N)=S)c1cc2ccc(O)cc2oc1=O` [T3, (1E)-2-(1-(7-hydroxy-2-oxo-2H-chromen-3-yl)ethylidene)hydrazine-1-carbothioamide], the Logβ in data set [1] (L + 2H^+ ⇌ H2L) is 17.6 (1); in data set [1] (L + 3H^+ ⇌ H3L), 23.26 (7); in data set [1] (L + 4H^+ ⇌ H4L), 26.7 (1); in data set [1] (setting [7]) it was 10.5 (1). Moreover, the pK in data set [1] (setting [7]) is listed as 10.5; in data set [1] (step to H2L), 7.1; in data set [1] (step to H3L), 5.7; in data set [1] (step to H4L) it was 3.4. The EC50 in data set [2] is 36 ± 1 µM; in data set [4], greater than 250 µM. Besides, the half-inhibitory concentration (IC50) in data set [3] was found to be 5 ± 2 µM.

`C/C(=N\NC(N)=S)c1cc2cc(O)c(O)cc2oc1=O` [T5, (1E)-2-(1-(6,7-dihydroxy-2-oxo-2H-chromen-3-yl)ethylidene)hydrazine-1-carbothioamide]: the melting point was 228 to 230 °C (dec.). The Logβ in data set [1] (L + 2H^+ ⇌ H2L) was 18.46 (9). For the same compound, in data set [1] (L + 3H^+ ⇌ H3L), the Logβ was 24.76 (7). In data set [1] (L + 4H^+ ⇌ H4L), the Logβ was 29.50 (6). For the same compound, in data set [1] (setting [7]), the Logβ is reported as 10.7 (1) and the pK is listed as 10.7. In data set [1] (step to H2L), this compound yielded a pK of 7.8. Further, the pK in data set [1] (step to H3L) is listed as 6.3. In data set [1] (step to H4L), this compound yielded a pK of 4.7. In addition, the “species present at pH of the enzymatic inhibitory studies” value in data set [1] is given as “monoanionic form, H2L^-”. This compound yielded a concentration for a half-maximal effect (EC50) in data set [2] of 9 ± 1 µM. The compound further displayed an IC50 in data set [3] of 6 ± 2 µM. Also, in data set [4], the response was half-maximal at 7.1 ± 0.3 µM (EC50).

Regarding `C/C(=N\NC(N)=S)c1cc2ccccc2oc1=O` [T1, (1E)-2-(1-(2-oxo-2H-chromen-3-yl)ethylidene)hydrazine-1-carbothioamide], the figures for the Logβ in data set [1] (L + 2H^+ ⇌ H2L), in data set [1] (L + 3H^+ ⇌ H3L) and in data set [1] (setting [7]) were 13.47 (9), 17.45 (8) and 8.46 (9), respectively. The pK in data set [1] (setting [7]) worked out at 8.5; in data set [1] (step to H2L), 5.0; in data set [1] (step to H3L), 4.0. Besides, the “species present in blood plasma” value in data set [1] (pH 7.4) is “neutral form (as HL)”. In addition, the concentration for a half-maximal effect (EC50) was 72 ± 6 µM in data set [2] and greater than 250 µM in data set [4]. This compound displayed a half-maximal inhibitory concentration (IC50) in data set [3] of 4 ± 2 µM. Further, the inhibition constant (Ki) in data set [3] (L-DOPA substrate) is 0.85 µM. In addition, the inhibition mode result in data set [3] is “competitive inhibition”.

Turning to `C/C(=N\NC(N)=S)c1cc2cccc(O)c2oc1=O` [T4, (1E)-2-(1-(8-hydroxy-2-oxo-2H-chromen-3-yl)ethylidene)hydrazine-1-carbothioamide], the melting point was 208 to 210 °C (dec.). Moreover, in data set [1] (L + 2H^+ ⇌ H2L), the Logβ was 17.26 (1). Moreover, the Logβ in data set [1] (L + 3H^+ ⇌ H3L) was 22.94 (5). Further, the Logβ in data set [1] (L + 4H^+ ⇌ H4L) is 26.5 (2). In data set [1] (setting [7]), the Logβ was 10.4 (1) and the pK is given as 10.4. In data set [1] (step to H2L), this compound showed a pK of 6.9. For the same compound, in data set [1] (step to H3L), the pK was determined as 5.7. In data set [1] (step to H4L), the pK is recorded as 3.6. Besides, the EC50 in data set [2] came to 21.8 ± 0.8 µM. In addition, the IC50 in data set [3] was found to be 5.7 ± 0.8 µM. The same compound displayed a 50% effective concentration (EC50) in data set [4] of 28 ± 2 µM. In addition, the “radical scavenging / antioxidant activity in DPPH assay (in words)” value in data set [4] (in comparison with ascorbic acid) is “modest antioxidant activity”.

In data set [2], `Cc1c(C)c2c(c(C)c1O)CCC(C)(C(=O)O)O2` (stereo not drawn) [Trolox, 6-hydroxy-2,5,7,8-tetramethylchromane-2-carboxylic acid, reference compound] had an EC50 of 13 ± 1 µM.

Usually melting point stands for the temperature of the solid-liquid transition. In general, EC50 refers to the concentration that produces a half-maximal response. Low readings indicate higher potency in that assay, high ones lower potency in that assay. As a reminder, the IC50 is the concentration needed to halve the response being measured. A high value points to lower potency. By viability is commonly meant a per cent measure of how many cells are alive, often set against a control. A lower viability goes with a greater loss of cells. As usually defined, the Ki is a measure of affinity in units of concentration, obtained from inhibition or displacement.
